Measurements taken from patent US9682151B2, “Peptides whose uptake in cells is controllable” (The Regents of the University of California, priority 2009, dated 2017).
Where two headings read alike, the source gives them in different places.

Tests used:
[1] = tested on: HT1080 human fibrosarcoma; details: for toxicity: 44 μmol/kg
Experimental: A selective transport molecule-Podophyllotoxin (selective transport molecule-podo) conjugate by reacting podo-ss-pyridine with Suc-e8-xPLGLAG-r9-c, purified by HPLC and confirmed by mass spectrometry. The peptide was stored as a TFA salt and the yield was determined by mass. For animal experiments, athymic nude mice were injected with 1×0^6HT1080 human fibrosarcoma cells in the mammary fat pad. After one week when tumors were 30-50 mm^3 mice were injected IP once every other day for a total of three times with 10 μmol/kg of either podophyllotoxin, selective transport molecule alone, or selective transport molecule-podo.
(§1) Therefore we synthesized Suc-e8-xPLGLAG-r9-c(ss-podophyllotoxin) to test in cell culture. […] In order to decide upon a starting dose, we tested podophyllotoxin by itself to determine the effective dose for shrinking tumors.
Three mice in each treatment group were injected with 3 doses, one dose every other day.

[2] = tested on: HT1080 human fibrosarcoma; details: 48-100 μmol/kg after multiple doses; cited from earlier work
[3] = tested on: HT-1080 tumor bearing nude / transgenic PyMT mice; details: mouse, in vivo
Experimental: Animals expressing the polyoma middle T transgene (PyMT) driven by the MMTV promoter were obtained from Lesley Ellies. Nude animals bearing HT-1080 xenografts were either generated in house or were obtained from Explora Biosciences. Either way, tumors were used once they reached a diameter of […]. Animals were anesthetized with ketamine/midazolam (80 mg/kg, 40 mg/kg) and injected with the indicated construct through the tail vein Animals were typically observed throughout the first hour as they woke up from anesthesia. They were re-anesthetized and imaged at six hours, 12 hours, 24 hours and 48 hours as needed. After the last imaging session, animals were sacrificed by overdose of halothane. The imaging system used evolved over time. For most of the PEGylated conjugates, a simple light box was used, though the image shown is one of the first taken with the Maestro spectral deconvolution imager. The albumin, dextran and PAMAM dendrimer conjugates were tested using a 620/20 excitation filter and collecting images at 680 nm. The streptavidin conjugates were tested using a 640/48 excitation filter, with images collected at 700 nm.
Standardized Uptake Values were initially measured without tissue specific calibrations and were later re-adjusted to take tissue specificity and a light source change into account. […]

[4] = mouse, in vivo
Experimental: Peptides conjugated to 5 kD PEG and 12 kD PEG were injected into nude mice bearing HT-1080 xenografts at a dose of 6 nmoles per animal (FIG. 24). […] As controls, a scrambled version of the PLGLAG (SEQ ID NO: 1) cleavable sequence denoted as LALGPG (SEQ ID NO: 48) and a d-amino acid version of the PLGLAG (SEQ ID NO: 1) sequence denoted as plglag were also injected. […] Because of what was what was available at the time, the polyoma transgenic mice were tested in wildtype and iNOS−/− backgrounds.
As the last molecule in the large molecular weight carrier series, 1725 was a fifth generation PAMAM dendrimer conjugated to two MMP cleavable selective transport molecules. The remaining 126 attachment sites were capped with succinyl groups. […] This molecule was injected into both HT-1080 tumor bearing nude transgenic PyMT mice at varying concentrations.

[5] = tested on: HT1080 human fibrosarcoma; test: Optical imaging of albumin reactive peptides in HT1080 tumor bearing mice; assay type: in vivo; details: 3 nmols IV, 24 hours
Experimental: (§2) Nude mice were injected with 2×^06HT1080 human fibrosarcoma cells in the left #2 mammary fat pad. Experiments were performed 5-7 days post injection. Polyoma Middle T mice (PyMT) were provided by Lesley Ellies and they were injected with peptide IV between 9-12 wks of age when medium to large sized tumors were present in each mammary fat pad. One million mouse mammary adenocarcinoma 4T1.2 cells (from Robyn Anderson, University of Melbourne) were injected into the left mammary fat pad of nude mice (FIGS. 4 and 7) and Balb/c mice (FIGS. 8 and 9) and 5-20 days later were injected with peptide and imaged.
(§3) When tumors were of sufficient size 5-20 days after injection of tumor cells the peptide was injected IV and imaged on the Maestro small animal imager (CRI). Animals were sacrificed by overdose with Isoflurane and dissected. To examine lung metastases, the lungs were inflated with OCT cryoprotectant and imaged on the small animal imager. Blood measurements were taken by bleeding the tail vein at a specified time point and collected in a capillary tube. The tubes were then imaged for presence of the Cy5 fluorescent peptide using the small animal imager. For processing of tissues for gels, 30 mg of tissue was homogenized in a 1% SDS Tris buffer then heated at 80° C. for 10 min and centrifuged. The supernatant was then diluted 1:10 and run on a tricine gel and imaged by fluorescence. […]

HT1080 tumor = test: Doxorubicin conjugated dendrimers in HT1080 tumor bearing mice; assay type: in vivo; details: single dose
Experimental: In multiple experiments, HT1080 bearing nude mice were injected with a single specific dose of doxorubicin dendrimer. […] Mouse weights and tumor volumes were measured regularly. For the urea and the Peg hydrazone dendrimers, mice were imaged spectrally 7 days after injection. Using the Maestro (CRI) spectral deconvolution system and software, doxorubicin fluorescence (red) was separated out from autofluorescence (green). Tumors were removed and imaged by spectral deconvolution and brightfield. For aromatic and thioether dendrimers there were 4 mice for each treatment group but only 2 mice for the urea and Peg hydrazone dendrimers because of limited dendrimer synthesis yields.

cells = test: Toxicity of podophyllotoxin conjugate in cell culture; assay type: cell-based
Excerpt: as §1

4T1.2 tumor = test: Plasma pre-reaction of maleimide peptide, blood levels and tumor fluorescence; assay type: in vivo, mice; details: 48 hours
Experimental: as §2, §3

mouse serum albumin = biological target: T1, mouse serum albumin (Mus musculus, UniProt P07724); test: Reaction of maleimide peptide with albumin; details: within an hour of mixing, PAGE
T1 construct: Albumin reactive selective transport molecules create a robust reaction with native albumin; purchased Sigma
T1 sequence (P07724 25-608): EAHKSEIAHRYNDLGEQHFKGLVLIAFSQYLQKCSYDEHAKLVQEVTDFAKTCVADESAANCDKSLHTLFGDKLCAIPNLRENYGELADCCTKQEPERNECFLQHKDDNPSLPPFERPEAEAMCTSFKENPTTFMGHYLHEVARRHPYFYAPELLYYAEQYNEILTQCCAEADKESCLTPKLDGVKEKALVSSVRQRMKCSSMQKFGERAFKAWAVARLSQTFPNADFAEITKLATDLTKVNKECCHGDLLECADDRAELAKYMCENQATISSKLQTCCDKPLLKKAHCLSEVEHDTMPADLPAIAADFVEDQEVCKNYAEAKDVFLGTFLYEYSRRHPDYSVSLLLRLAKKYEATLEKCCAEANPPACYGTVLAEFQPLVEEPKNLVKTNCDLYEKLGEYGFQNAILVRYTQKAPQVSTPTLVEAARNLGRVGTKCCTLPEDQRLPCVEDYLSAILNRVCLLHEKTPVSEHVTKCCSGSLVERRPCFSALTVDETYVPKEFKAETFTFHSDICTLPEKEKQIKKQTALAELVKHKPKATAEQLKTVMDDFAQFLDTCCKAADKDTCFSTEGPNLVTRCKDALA
Experimental: (§4) Maleimide peptides were initially reacted with mouse serum albumin (Sigma) at 40 mg/mL or fresh frozen mouse plasma for one hour. Samples were run on a tricine buffered 10-20% polyacrylamide gel and imaged for Cy5 fluorescence on a UVP gel imager. For the enzyme cleavage assay, Cy5-monomaleimide and the cleavable maleimide peptides were reacted as 2 nmol with mouse serum albumin at 40 mg/mL in 25 mM hepes buffer. The stock was then diluted 1:[…] with 50 nM of recombinant MMP-9 (EMD Biosciences) and digested for 20 minutes and 4 hours then run on a tricine gel and imaged by Cy5.
(§5) Malemide selective transport molecule was reacted mouse serum albumin and plasma in aqueous conditions to determine that peptide reacts with albumin in a test tube. […] Plasma seemed to give somewhat more complete reaction.

recombinant MMP-9 = biological target: T2, recombinant MMP-9 (Homo sapiens, UniProt P14780); test: Enzyme cleavage assay of albumin reacted maleimide peptide; assay type: biochemical; details: 50 nM MMP-9
T2 construct: purchased EMD Biosciences
T2 sequence (P14780 94-707, species assumed): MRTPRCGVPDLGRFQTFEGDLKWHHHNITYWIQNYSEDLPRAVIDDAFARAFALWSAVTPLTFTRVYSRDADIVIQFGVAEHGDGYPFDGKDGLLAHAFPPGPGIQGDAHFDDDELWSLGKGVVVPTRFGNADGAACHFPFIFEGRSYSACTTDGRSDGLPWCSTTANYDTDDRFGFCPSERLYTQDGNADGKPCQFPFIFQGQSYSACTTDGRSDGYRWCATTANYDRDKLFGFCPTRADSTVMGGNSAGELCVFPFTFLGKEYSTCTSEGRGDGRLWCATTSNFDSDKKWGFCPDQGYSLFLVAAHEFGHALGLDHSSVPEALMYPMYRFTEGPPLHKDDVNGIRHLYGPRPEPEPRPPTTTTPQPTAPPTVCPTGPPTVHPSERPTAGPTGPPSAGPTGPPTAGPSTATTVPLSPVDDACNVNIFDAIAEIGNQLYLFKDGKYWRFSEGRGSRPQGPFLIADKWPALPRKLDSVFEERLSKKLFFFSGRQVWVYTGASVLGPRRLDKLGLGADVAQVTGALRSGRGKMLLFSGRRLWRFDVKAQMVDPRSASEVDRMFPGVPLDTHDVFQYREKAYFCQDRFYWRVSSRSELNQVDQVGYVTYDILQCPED
Experimental: as §4, §5

[6] = 10 μmol/kg IP, 3 doses, one every other day

With COc1cc([C@@H]2c3cc4c(cc3[C@H](O)[C@H]3COC(=O)[C@H]23)OCO4)cc(OC)c1OC [podophyllotoxin, reference compound] the “effect on tumor growth” value [1, 6] was “not efficacious”, the “effect on tumor growth” value ([1]; 10 μmol/kg IP, 3 doses, one every other day, listed as Podo) was “no therapeutic activity or toxicity” and the toxicity [1] was “no obvious signs of toxicity”. The “effect on tumor growth” value ([1]; 3 injections at 44 μmol/kg every other day) was “sufficient to significantly slow tumor growth but not provide a cure” and the “toxicity (literature)” value [2] was “minimal toxicity”.
In the case of “G5PAMAM-[e9-XPLGLAG-r9-k(cy5)][PEG]127 [G5PAMAM-[e9-XPLGLAG-r9-k(cy5)] [PEG]127]”, the “tumor uptake relative to PLGLAX dendrimer” value [3] is reported as “decreased tumor uptake”.
In the case of “G5PAMAM-[e9-OPLG(MeC)AG-r9-k(cy5)][PEG]127]”, the “liver uptake relative to PLGLAX dendrimer” value [3] is reported as “decrease by a factor of two”.
In the case of 12kD-PEG-e9-XPLGLAG-r9-k(cy5), the “Approx Plasma Halflife” value [4] is reported as about 20 m and the blood halflife [4] is reported as “approximately 20 minutes”.
With Suc-e8-xPLGLAG-r9-c(Cy5) the “tumor uptake (Cy5 fluorescence)” value [5] was “difficult to detect”.
In the case of COc1cccc2c1C(=O)c1c(O)c3c(c(O)c1C2=O)C[C@@](O)(C(=O)CO)C[C@@H]3O[C@H]1C[C@H](N)[C@H](O)[C@H](C)O1 [doxorubicin], the “anti-tumor activity (qualitative)” value (HT1080 tumor) is reported as “continually beat the dendrimers in anti-tumor activity”.
In the case of “Suc-e8-xPLGLAG-r9-c(ss-podophyllotoxin) [selective transport molecule-podo]”, the body weight ([1]; 10 μmol/kg IP, 3 doses) is reported as “lost significant weight”, the “effect on tumor growth” value [1, 6] is reported as “modest slowing of growth” and the toxicity [1] is reported as “acutely toxic”. For the same molecule, the toxicity on cells (cells) was “submicromolar toxicity”.
For “G5-PAMAM-[e9-XPLGLAX-r9-k(cy5)]2[PEG]126”, the “Approx Plasma Halflife” value [4] was about 20 h and the blood halflife [4] was “over 10 hours”.
With “Generation 5 PAMAM-(e9-XPLGLAX-r9-k(cy5))2(succ)126” the “blood halflife, first phase (biphasic)” value [4] was “under 10 minutes” and the “blood halflife, second phase (biphasic)” value [4] was 10 to 15 h.
For Streptavidin-[e9-XPLGLAG-r9-k(cy5)]4, the “Approx Plasma Halflife” value [4] was about 4 h.
In the case of Cy5-monomaleimide, the “tumor fluorescence / uptake” value (4T1.2 tumor) is reported as “significantly less fluorescence”.
With mal-e9-oPLG(Cme)AG-r9-c(cy5) the “reaction with mouse serum albumin or plasma” value (mouse serum albumin) was “most of the peptide reacted with MSA or plasma albumin”, the “tumor uptake (Cy5 fluorescence)” value [5] was “much greater with the cleavable peptide compared to the uncleavable peptide” and the “time to near complete cleavage off albumin” value (recombinant MMP-9) was “less than 4 hours”.
